Source: PubChem BioAssay (NCI)
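These data come from cells grown in 96-well plates and exposed to compound for 48 hours at five concentrations. Abbreviation: GI50, concentration required for 50% inhibition of growth. TGI is the concentration that stops growth completely.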

Experiments:
Assay in all cases: growth of human tumour cells (NCI), 48 h
[1] = system: CCRF-CEM leukemia
[2] = system: UACC-62 melanoma
[3] = system: HCC-2998 colon
[4] = system: LOX IMVI melanoma
[5] = system: T-47D breast
[6] = system: SF-539 CNS
[7] = system: TK-10 renal
[8] = system: SN12C renal
[9] = system: OVCAR-5 ovarian
[10] = system: HS 578T breast
[11] = system: SK-OV-3 ovarian
[12] = system: ACHN renal
[13] = system: MOLT-4 leukemia
[14] = system: SF-295 CNS
[15] = system: HL-60(TB) leukemia
[16] = system: NCI/ADR-RES ovarian
[17] = system: OVCAR-3 ovarian
[18] = system: A498 renal
[19] = system: RXF 393 renal
[20] = system: SNB-75 CNS
[21] = system: A549 NSCLC
[22] = system: MDA-MB-231 breast
[23] = system: OVCAR-8 ovarian
[24] = system: COLO 205 colon
[25] = system: UO-31 renal
[26] = system: SF-268 CNS
[27] = system: SK-MEL-2 melanoma
[28] = system: HCT-15 colon
[29] = system: SW-620 colon
[30] = system: IGROV1 ovarian
[31] = system: MALME-3M melanoma
[32] = system: NCI-H522 lung
[33] = system: NCI-H23 lung
[34] = system: 786-0 renal
[35] = system: SNB-19 CNS
[36] = system: KM12 colon
[37] = system: MDA-MB-468 breast
[38] = system: PC-3 prostate
[39] = system: EKVX NSCLC
[40] = system: MCF7 breast
[41] = system: DU-145 prostate
[42] = system: CAKI-1 renal
[43] = system: SK-MEL-5 melanoma
[44] = system: HCT-116 colon
[45] = system: M14 melanoma
[46] = system: RPMI-8226 leukemia
[47] = system: NCI-H460 lung
[48] = system: K-562 leukemia
[49] = system: OVCAR-4 ovarian
[50] = system: HOP-62 NSCLC
[51] = system: NCI-H226 lung
[52] = system: SK-MEL-28 melanoma
[53] = system: UACC-257 melanoma
[54] = system: U251 CNS
[55] = system: SR leukemia
[56] = system: BT-549 breast
[57] = system: HOP-92 NSCLC
[58] = system: MDA-MB-435
[59] = system: HT29 colon

With `CCOc1ccc2ncc(C#Cc3cncc(C(=O)Nc4ccc(CN5CCN(C)CC5)c(C(F)(F)F)c4)c3)n2n1` the GI50 [1] was 64.2 nM, the TGI [1] was greater than 21.2 µM and the GI50 [2] was 9.92 µM. For the same molecule, the TGI [2] was 24.5 µM, the GI50 [3] was 2.34 µM and the TGI [3] was 20.1 µM. The GI50 [4] was 608 nM, the TGI [4] was 1940 nM and the GI50 [5] was 17.8 µM. It also gave a TGI [5] greater than 70.5 µM, a GI50 [6] of 143 nM and a TGI [6] of 0.755 µM. For the same molecule, the GI50 [7] was 8.09 µM, the TGI [7] was 23.3 µM and the GI50 [8] was 643 nM. The TGI [8] was 11.7 µM, the GI50 [9] was 0.802 µM and the TGI [9] was 12 µM. For the same molecule, the GI50 [10] was 283 nM, the TGI [10] was 3.11 µM and the GI50 [11] was 4.64 µM. The TGI [11] was 19.7 µM, the GI50 [12] was 0.561 µM and the TGI [12] was 15 µM. It also gave a GI50 [13] of 0.316 µM, a TGI [13] of 3.35 µM and a GI50 [14] of 0.918 µM. For the same molecule, the TGI [14] was 19 µM, the GI50 [15] was 0.521 µM and the TGI [15] was 16.3 µM. It also gave a GI50 [16] of 1160 nM, a TGI [16] of 2660 nM and a GI50 [17] of 4.5 µM. For the same molecule, the TGI [17] was 24.6 µM, the GI50 [18] was 6.96 µM and the TGI [18] was 24.3 µM. It also gave a GI50 [19] of 0.89 µM, a TGI [19] of 2.34 µM and a GI50 [20] of 3.31 µM. The TGI [20] was 16.3 µM, the GI50 [21] was 1.16 µM and the TGI [21] was 22.7 µM. For the same molecule, the GI50 [22] was 362 nM, the TGI [22] was 2.87 µM and the GI50 [23] was 3.21 µM. It also gave a TGI [23] of 10.6 µM, a GI50 [24] of 272 nM and a TGI [24] of 0.883 µM. For the same molecule, the GI50 [25] was 2200 nM, the TGI [25] was 13.7 µM and the GI50 [26] was 1920 nM. It also gave a TGI [26] of 17.6 µM, a GI50 [27] of 1340 nM and a TGI [27] of 11.9 µM. It also gave a GI50 [28] of 357 nM, a TGI [28] of 1660 nM and a GI50 [29] of 287 nM. It also gave a TGI [29] of 2.3 µM, a GI50 [30] of 2.18 µM and a TGI [30] of 19.1 µM. For the same molecule, the GI50 [31] was 353 nM, the TGI [31] was 1710 nM and the GI50 [32] was 1400 nM. It also gave a TGI [32] of 21.9 µM, a GI50 [33] of 393 nM and a TGI [33] of 4.9 µM. For the same molecule, the GI50 [34] was 1.56 µM, the TGI [34] was 2.95 µM and the GI50 [35] was 6.37 µM. For the same molecule, the TGI [35] was 21.7 µM, the TGI [36] was 10.5 µM and the GI50 [37] was 1660 nM. It also gave a TGI [37] of 11.1 µM, a GI50 [38] of 1520 nM and a TGI [38] of 19.2 µM. It also gave a GI50 [39] of 0.704 µM, a TGI [39] of 17.8 µM and a GI50 [40] of 208 nM. The TGI [40] was 1.74 µM, the GI50 [41] was 1100 nM and the TGI [41] was 17.3 µM. The GI50 [42] was 0.79 µM, the TGI [42] was 13.2 µM and the GI50 [43] was 1.89 µM. For the same molecule, the TGI [43] was 7.25 µM, the GI50 [44] was 225 nM and the TGI [44] was 1.56 µM. For the same molecule, the GI50 [45] was 416 nM, the TGI [45] was 1.79 µM and the GI50 [46] was 1.06 µM. It also gave a TGI [46] of 4.38 µM, a GI50 [47] of 534 nM and a TGI [47] of 16.9 µM. The TGI [48] was 1360 nM, the GI50 [49] was 3.56 µM and the TGI [49] was 28.7 µM. The GI50 [50] was 1250 nM, the TGI [50] was 14.4 µM and the GI50 [51] was 151 nM. The TGI [51] was 1.85 µM, the GI50 [52] was 1300 nM and the TGI [52] was 2.66 µM. It also gave a GI50 [53] of 2.16 µM, a TGI [53] of 11.4 µM and a GI50 [54] of 11.7 µM. The TGI [54] was 30.9 µM, the GI50 [55] was 723 nM and the TGI [55] was 9.4 µM. For the same molecule, the GI50 [56] was 1.79 µM, the TGI [56] was 12.4 µM and the GI50 [57] was 206 nM. The TGI [57] was 1.34 µM, the GI50 [58] was 592 nM and the TGI [58] was 5.15 µM. It also gave a GI50 [59] of 475 nM and a TGI [59] of 2.39 µM.

Work on `COc1ccc2[nH]c(O)c(N=NC(=O)COc3ccc(NC(=O)Nc4ccc(Cl)cc4)cc3)c2c1` yielded a GI50 [1] of 5390 nM, a TGI [1] of 26.3 µM and a GI50 [2] of 2.23 µM. It also gave a TGI [2] of 5.8 µM, a GI50 [3] of 5.33 µM and a TGI [3] of 25.9 µM. For the same molecule, the GI50 [4] was 1870 nM, the TGI [4] was 3810 nM and the GI50 [5] was 9.57 µM. The TGI [5] was 23.9 µM, the GI50 [6] was 2420 nM and the TGI [6] was 6.86 µM. For the same molecule, the GI50 [7] was 20.8 µM, the TGI [7] was 48.3 µM and the GI50 [8] was 3030 nM. The TGI [8] was 11.4 µM, the GI50 [9] was 6.34 µM and the TGI [9] was 20 µM. For the same molecule, the GI50 [10] was 2800 nM, the TGI [10] was 13.4 µM and the GI50 [11] was 12.7 µM. It also gave a TGI [11] of 27.6 µM, a GI50 [12] of 19.3 µM and a TGI [12] of 58.8 µM. For the same molecule, the GI50 [13] was 9.72 µM, the TGI [13] was 51.2 µM and the GI50 [14] was 6.63 µM. It also gave a TGI [14] of 20.1 µM, a GI50 [15] of 23.6 µM and a TGI [15] greater than 100 µM. The GI50 [16] was greater than 100000 nM, the TGI [16] was greater than 100000 nM and the GI50 [17] was 2.21 µM. The TGI [17] was 6.34 µM, the GI50 [18] was 17.1 µM and the TGI [18] was 31.8 µM. For the same molecule, the GI50 [19] was 6.26 µM, the TGI [19] was 22.2 µM and the GI50 [20] was 8.94 µM. It also gave a TGI [20] of 27.7 µM, a GI50 [21] of 8.39 µM and a TGI [21] of 44.4 µM. The GI50 [22] was 1800 nM, the TGI [22] was 3.75 µM and the GI50 [23] was 10.5 µM. It also gave a TGI [23] of 37.9 µM, a GI50 [24] of 3630 nM and a TGI [24] of 13.2 µM. It also gave a GI50 [25] greater than 100000 nM, a TGI [25] greater than 100 µM and a GI50 [26] of 3300 nM. It also gave a TGI [26] of 10.4 µM, a GI50 [27] of 2080 nM and a TGI [27] of 4.41 µM. The GI50 [28] was greater than 100000 nM, the TGI [28] was greater than 100000 nM and the GI50 [29] was 2610 nM. For the same molecule, the TGI [29] was 13.2 µM, the GI50 [30] was 8.74 µM and the TGI [30] was 21.6 µM. The GI50 [31] was 1770 nM, the TGI [31] was 3610 nM and the GI50 [32] was 2230 nM. The TGI [32] was 5.85 µM, the GI50 [33] was 2680 nM and the TGI [33] was 8.54 µM. The GI50 [34] was 7.32 µM, the TGI [34] was 24.9 µM and the GI50 [35] was 3 µM. For the same molecule, the TGI [35] was 10.9 µM, the GI50 [36] was 3.21 µM and the TGI [36] was 13.4 µM. For the same molecule, the GI50 [37] was 1850 nM, the TGI [37] was 4.61 µM and the GI50 [38] was 3390 nM. The TGI [38] was 14.9 µM, the GI50 [39] was 18.7 µM and the TGI [39] was greater than 100 µM. The GI50 [40] was 2880 nM, the TGI [40] was 10.2 µM and the GI50 [41] was 4140 nM. It also gave a TGI [41] of 20.7 µM, a GI50 [42] of 16.6 µM and a TGI [42] of 33.7 µM. It also gave a GI50 [43] of 5.9 µM, a TGI [43] of 18.9 µM and a GI50 [44] of 2960 nM. It also gave a TGI [44] of 11.5 µM, a GI50 [45] of 2610 nM and a TGI [45] of 7.88 µM. The GI50 [46] was 6.58 µM, the TGI [46] was 68.8 µM and the GI50 [47] was 1840 nM. It also gave a TGI [47] of 3.97 µM, a GI50 [48] of 5.36 µM and a TGI [48] greater than 100000 nM. For the same molecule, the GI50 [49] was 2.94 µM, the TGI [49] was 11 µM and the GI50 [50] was 2540 nM. It also gave a TGI [50] of 6.4 µM, a GI50 [51] of 3740 nM and a TGI [51] of 16.8 µM. The GI50 [52] was 1810 nM, the TGI [52] was 3.56 µM and the GI50 [53] was 13.1 µM. For the same molecule, the TGI [53] was 28.2 µM, the GI50 [54] was 4.16 µM and the TGI [54] was 14.5 µM. For the same molecule, the GI50 [55] was 4150 nM, the TGI [55] was greater than 100 µM and the GI50 [56] was 12.1 µM. It also gave a TGI [56] of 26.6 µM, a GI50 [57] of 2430 nM and a TGI [57] of 7.31 µM. The GI50 [58] was 1750 nM, the TGI [58] was 4.77 µM and the GI50 [59] was 3220 nM. The TGI [59] was 14 µM.
